Test results taken from patent US6355799B1, “Substituted benzene compounds, process for their preparation, and herbicidal and defoliant compositions containing them” (ISK Americas Incorporated, priority 1997, dated 2002).

What was measured:
Format in all cases: in vivo
[1] = system: redroot pigweed (Amaranthus retroflexus, AMARE); assay: Pre-emerge test, greenhouse herbicide activity screening; settings: pre-emerge, 14 days after application, rating scale 0-100
Procedure, shortened: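 Plants grown in 10 cm pots of sandy loam mix received acetone-dissolved compounds through a moving flat-fan nozzle. Doses ranged from 15 to 1000 g ai/ha. Pre-emerge pots were seeded one day earlier, post-emerge pots 8–21 days earlier. Fourteen days on, each pot was graded 0–100 for damage.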

[2] = system: barnyardgrass (Echinochloa crus-galli, ECHCG); assay: as above; settings: pre-emerge, 14 days after application, rating scale 0-100
Procedure, shortened: (§1)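 Herbicidal damage is scored 0 (none) to 100 (complete plant death) two weeks after a simulated field spray. Rates span 15–1000 g ai/ha, delivered in acetone at 187 l/ha. For post-emergence treatments, plants have 2–3 leaves and the spray carries 0.25% v/v non-ionic surfactant.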

[3] = system: common ragweed (Ambrosia artemisizfolia L., AMBEL); assay: as above; settings: pre-emerge, 14 days after application, rating scale 0-100
Procedure, shortened: as §1

[4] = system: green foxtail (Setaria viridis, SETVI); assay: as above; settings: pre-emerge, 14 days after application, rating scale 0-100
Procedure, shortened: as §1

[5] = system: ivyleaf morningglory (Ipomoea hederacea, IPOHE); assay: as above; settings: pre-emerge, 14 days after application, rating scale 0-100
Procedure, shortened: as §1

[6] = system: johnsongrass (Sorghum halepense, SORHA); assay: as above; settings: pre-emerge, 14 days after application, rating scale 0-100
Procedure, shortened: as §1

[7] = system: lambsquarters (Chenopodium album, CHEAL); assay: as above; settings: pre-emerge, 14 days after application, rating scale 0-100
Procedure, shortened: as §1

[8] = system: large crabgrass (Digitaria sanguinalis, DIGSA); assay: as above; settings: pre-emerge, 14 days after application, rating scale 0-100
Procedure, shortened: as §1

[9] = system: sicklepod (Cassia obtusifolia, CASOB); assay: as above; settings: pre-emerge, 14 days after application, rating scale 0-100
Procedure, shortened: as §1

[10] = system: velvetleaf (Abutilon theophrasti, ABUTH); assay: as above; settings: pre-emerge, 14 days after application, rating scale 0-100
Procedure, shortened: as §1

[11] = system: field corn (Zea mays L., var. Dekalb 535, CORN); assay: Pre-emerge test, crop safety; settings: pre-emerge, 14 days after application, rating scale 0-100
Procedure, shortened: (§2)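 Applied at 15–1000 g ai/ha from acetone in 187 l/ha spray volume. Post-emergence applications included 0.25% v/v non-ionic surfactant and reached plants sown 8–21 days before. Pre-emergence applications were incorporated by surface watering. Efficacy or crop damage was rated on a 0–100 scale after 14 days.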

[12] = system: upland rice (Oryza sp., var. Tebonnet, RICE); assay: Pre-emerge test, crop safety; settings: pre-emerge, 14 days after application, rating scale 0-100
Procedure, shortened: as §2

[13] = system: barnyardgrass (Echinochloa crus-galli, ECHCG); assay: Post-emerge test, greenhouse herbicide activity screening; settings: rating scale 0-100 (0 no damage, 100 complete death), 14 days after application
Procedure, shortened: (§3)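 Each test used a mechanized track sprayer delivering 187 l/ha of acetone solution at 15–1000 g ai/ha. Post-emerge foliage at 2–3 leaves was treated with added 0.25% v/v non-ionic surfactant and bottom-watered only. Injury was assessed on day 14, where 100 means total kill.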

[14] = system: green foxtail (Setaria viridis, SETVI); assay: as above; settings: rating scale 0-100 (0 no damage, 100 complete death), 14 days after application
Procedure, shortened: as §3

[15] = system: ivyleaf morningglory (Ipomoea hederacea, IPOHE); assay: as above; settings: rating scale 0-100 (0 no damage, 100 complete death), 14 days after application
Procedure, shortened: as §3

[16] = system: johnsongrass (Sorghum halepense, SORHA); assay: as above; settings: rating scale 0-100 (0 no damage, 100 complete death), 14 days after application
Procedure, shortened: as §3

[17] = system: lambsquarters (Chenopodium album, CHEAL); assay: as above; settings: rating scale 0-100 (0 no damage, 100 complete death), 14 days after application
Procedure, shortened: as §3

[18] = system: large crabgrass (Digitaria sanguinalis, DIGSA); assay: as above; settings: rating scale 0-100 (0 no damage, 100 complete death), 14 days after application
Procedure, shortened: as §3

[19] = system: redroot pigweed (Amaranthus retroflexus, AMARE); assay: as above; settings: rating scale 0-100 (0 no damage, 100 complete death), 14 days after application
Procedure, shortened: as §3

[20] = system: sicklepod (Cassia obtusifolia, CASOB); assay: as above; settings: rating scale 0-100 (0 no damage, 100 complete death), 14 days after application
Procedure, shortened: as §3

[21] = system: velvetleaf (Abutilon theophrasti, ABUTH); assay: as above; settings: rating scale 0-100 (0 no damage, 100 complete death), 14 days after application
Procedure, shortened: as §3

[22] = system: field corn (Zea mays L., var. Dekalb 535, CORN); assay: Post-emerge test, crop safety; settings: rating scale 0-100 (0 no damage, 100 complete death), 14 days after application
Procedure, shortened: as §1

[23] = system: upland rice (Oryza sp., var. Tebonnet, RICE); assay: Post-emerge test, crop safety; settings: rating scale 0-100 (0 no damage, 100 complete death), 14 days after application
Procedure, shortened: as §1

CCOC(=O)C(Cl)Cc1c(C)c(Cl)cc(F)c1-n1c(=O)cc(C(F)(F)F)n(C)c1=O (stereo not shown) [14-54]
phytotoxicity rating AMARE ([1]; 63 g ai/ha): 20 | phytotoxicity rating AMARE ([1]; 250 g ai/ha): 85 | phytotoxicity rating ECHCG ([2]; 63 g ai/ha): 0 | phytotoxicity rating ECHCG ([2]; 250 g ai/ha): 0 | phytotoxicity rating AMBEL ([3]; 63 g ai/ha): 0 | phytotoxicity rating AMBEL ([3]; 250 g ai/ha): 0 | phytotoxicity rating SETVI ([4]; 63 g ai/ha): 20 | phytotoxicity rating SETVI ([4]; 250 g ai/ha): 80 | phytotoxicity rating IPOHE ([5]; 63 g ai/ha): 0 | phytotoxicity rating IPOHE ([5]; 250 g ai/ha): 40 | phytotoxicity rating SORHA ([6]; 63 g ai/ha): 0 | phytotoxicity rating SORHA ([6]; 250 g ai/ha): 30 | phytotoxicity rating CHEAL ([7]; 63 g ai/ha): 10 | phytotoxicity rating CHEAL ([7]; 250 g ai/ha): 100 | phytotoxicity rating DIGSA ([8]; 63 g ai/ha): 0 | phytotoxicity rating DIGSA ([8]; 250 g ai/ha): 30 | phytotoxicity rating CASOB ([9]; 63 g ai/ha): 0 | phytotoxicity rating CASOB ([9]; 250 g ai/ha): 10 | phytotoxicity rating ABUTH ([10]; 63 g ai/ha): 0 | phytotoxicity rating ABUTH ([10]; 250 g ai/ha): 70 | phytotoxicity rating CORN ([11]; 63 g ai/ha): 0 | phytotoxicity rating CORN ([11]; 250 g ai/ha): 0 | phytotoxicity rating RICE ([12]; 63 g ai/ha): 0 | phytotoxicity rating RICE ([12]; 250 g ai/ha): 15 | Post-emerge Herbicidal Activity, phytotoxicity rating ECHCG ([13]; Rate 63 g ai/ha): 30 | Post-emerge Herbicidal Activity, phytotoxicity rating ECHCG ([13]; Rate 250 g ai/ha): 30 | Post-emerge Herbicidal Activity, phytotoxicity rating SETVI ([14]; Rate 63 g ai/ha): 10 | Post-emerge Herbicidal Activity, phytotoxicity rating SETVI ([14]; Rate 250 g ai/ha): 10 | Post-emerge Herbicidal Activity, phytotoxicity rating IPOHE ([15]; Rate 63 g ai/ha): 30 | Post-emerge Herbicidal Activity, phytotoxicity rating IPOHE ([15]; Rate 250 g ai/ha): 80 | Post-emerge Herbicidal Activity, phytotoxicity rating SORHA ([16]; Rate 63 g ai/ha): 0 | Post-emerge Herbicidal Activity, phytotoxicity rating SORHA ([16]; Rate 250 g ai/ha): 0 | Post-emerge Herbicidal Activity, phytotoxicity rating CHEAL ([17]; Rate 63 g ai/ha): 20 | Post-emerge Herbicidal Activity, phytotoxicity rating CHEAL ([17]; Rate 250 g ai/ha): 60 | Post-emerge Herbicidal Activity, phytotoxicity rating DIGSA ([18]; Rate 63 g ai/ha): 0 | Post-emerge Herbicidal Activity, phytotoxicity rating DIGSA ([18]; Rate 250 g ai/ha): 10 | Post-emerge Herbicidal Activity, phytotoxicity rating AMARE ([19]; Rate 63 g ai/ha): 40 | Post-emerge Herbicidal Activity, phytotoxicity rating AMARE ([19]; Rate 250 g ai/ha): 50 | Post-emerge Herbicidal Activity, phytotoxicity rating CASOB ([20]; Rate 63 g ai/ha): 0 | Post-emerge Herbicidal Activity, phytotoxicity rating CASOB ([20]; Rate 250 g ai/ha): 30 | Post-emerge Herbicidal Activity, phytotoxicity rating ABUTH ([21]; Rate 63 g ai/ha): 60 | Post-emerge Herbicidal Activity, phytotoxicity rating ABUTH ([21]; Rate 250 g ai/ha): 80 | Post-emerge phytotoxicity rating CORN (crop damage) ([22]; Rate 63 g ai/ha): 5 | Post-emerge phytotoxicity rating CORN (crop damage) ([22]; Rate 250 g ai/ha): 15 | Post-emerge phytotoxicity rating RICE (crop damage) ([23]; Rate 63 g ai/ha): 10 | Post-emerge phytotoxicity rating RICE (crop damage) ([23]; Rate 250 g ai/ha): 10
